Experimental data published in PubChem BioAssay (NCI).
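Test compounds were applied to cells in 96-well plates for 48 hours at 5 doses. At the GI50, growth is halved. TGI denotes the concentration required for complete inhibition of growth.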

Columns and labels:
Test in all cases: DTP human tumour cell line panel, 48 h
SR leukemia = test system: SR leukemia
UACC-62 melanoma = test system: UACC-62 melanoma
NCI-H23 lung = test system: NCI-H23 lung
HT29 colon = test system: HT29 colon
RXF 393 renal = test system: RXF 393 renal
COLO 205 colon = test system: COLO 205 colon
UACC-257 melanoma = test system: UACC-257 melanoma
SK-MEL-5 melanoma = test system: SK-MEL-5 melanoma
MDA-MB-231 breast = test system: MDA-MB-231 breast
BT-549 breast = test system: BT-549 breast

SMILES	TGI (SR leukemia) [µM]	TGI (UACC-62 melanoma) [µM]	TGI (NCI-H23 lung) [µM]	TGI (HT29 colon) [µM]	TGI (RXF 393 renal) [µM]	TGI (COLO 205 colon) [µM]	TGI (UACC-257 melanoma) [µM]	GI50 (UACC-62 melanoma) [µM]	GI50 (SK-MEL-5 melanoma) [µM]	TGI (SK-MEL-5 melanoma) [µM]	GI50 (MDA-MB-231 breast) [µM]	TGI (MDA-MB-231 breast) [µM]	GI50 (NCI-H23 lung) [µM]	GI50 (RXF 393 renal) [µM]	GI50 (COLO 205 colon) [µM]	GI50 (UACC-257 melanoma) [µM]	GI50 (SR leukemia) [µM]	GI50 (HT29 colon) [µM]	GI50 (BT-549 breast) [µM]	TGI (BT-549 breast) [µM]
COc1ccc2c(C(=O)O)cc3ccccc3c2c1OC	> 100	32.5	48	48.9	28.6	44.2	35.9													
COc1ccc(Nc2cnc3cc(N)cc(N)c3n2)cc1		28.8	7.65		39.6	> 100	45.9	14.6	16	29.8	10.5	26.2	2.02	17.6	30.5	19.4				
COc1cc(C(=O)/C=C/c2cccc(Nc3ccnc4cc(Cl)ccc34)c2)cc(OC)c1OC	1.42	2.36	3.68	1.3	2.48	3.69	3.06	1.03	1.38	2.67			1.67	1.08	1.34	1.43	0.324	0.323	1.23	2.84
Cc1ccccc1C(CCCO)C(=O)O (stereo unspecified)		> 100	> 100	> 100	> 100	> 100	> 100			> 100										
CCOC(=O)C1=C(NC)OCC1=O		> 100	> 100	> 100	> 100	> 100	> 100			> 100										
CC(=O)Nc1ccc(C2CC(c3ccc([N+](=O)[O-])cc3)=Nc3ccccc3S2=O)cc1 (stereo unspecified)		27.8	53.9	59.1	32.3	44.9	95.3			48.4										
O=C(NCCc1ccccc1)C1C(=O)C(=O)N(CCc2ccccc2)C1=O (stereo unspecified)	> 100	> 100	> 100	> 100			> 100													
CC12OC(=O)C(C#N)C1(C)C1C(=O)CCCC12 (stereo unspecified)		> 100	> 100		> 100	> 100				> 100										
N#Cc1ccc(Sc2nc3ccccc3[nH]2)cc1	> 100	> 100	> 100	> 100	> 100	> 100	> 100			> 100										
O=C1C2C3C=CC(C2C(=O)N1CO)C1C2C(=O)N(CO)C(=O)C2C31 (stereo unspecified)	45	> 100	> 100	> 100	> 100	> 66.9	> 100			> 100										
COc1ccc2nc(NC(=O)C(=O)CC(=O)c3ccc([N+](=O)[O-])cc3)sc2c1		> 100	> 100	> 100		> 100	> 100			> 100										
COc1ccc(/C=C2\CCC/C(=C\c3ccc(OC)c(OC)c3)C2=O)cc1OC		> 32.5	> 32.5	> 32.5	3.18	> 32.5	> 32.5	7.63	1.88	> 32.5	10.5	> 32.5	2.91	0.613	1.46	4.65		1.34	1.7	> 32.5
COc1cc(/C=C2\NC(=O)C(Cc3cc(OC)c(OC)c(C)c3OC)N(C(C)=O)C2=O)c(OC)c(C)c1OC (stereo unspecified)	> 100	> 100	> 100	> 100	> 100	> 100	> 100			> 100										
O=[N+]([O-])c1ccc(-c2ccc(C3=Nn4c(CNc5ccccc5Cl)nnc4SC3)o2)cc1	> 100	> 100	> 100	> 100		> 100	> 100													
CC(=O)Oc1c(C(=O)[O-])cc(C(C)C)cc1C(C)C.CC(=O)Oc1c(C(=O)[O-])cc(C(C)C)cc1C(C)C.CC(=O)Oc1c(C(=O)[O-])cc(C(C)C)cc1C(C)C.CC(=O)Oc1c(C(=O)[O-])cc(C(C)C)cc1C(C)C.[Cu+2].[Cu+2]		39.9	52.7	> 100		42.5	36.9	18.6	18	32.9	33.9	> 100	20.1		21	18.2		37.5	16.7	38.5
Cc1ccc(S(=O)(=O)NCCCCC(N)C(=O)O)cc1 (stereo unspecified)		> 100	> 100	> 100	> 100	> 100	> 100			> 100		> 100								> 100
COc1cc(-c2nccc3[nH]c(-c4ccc5cc[nH]c5c4)nc23)cc(OC)c1OC	11.9	2.57	4.2	1.08		< 0.01		< 0.01	< 0.01	0.563	< 0.01	1.96	< 0.01		< 0.01		< 0.01	< 0.01	< 0.01	2.71
O=C(O)CN(CCN(CC(=O)O)CC(=O)O)CC(=O)O.[Mn+2]		> 100	> 100	> 100	> 100	> 100	> 100	> 100	> 100	> 100	> 100	> 100	> 100	> 100	> 100	> 100		> 100	> 100	> 100
CC1NOC(=O)C1N=Nc1ccc(Cl)cc1Cl (stereo unspecified)	71.9	> 100	64.2	> 100	46.1	39	67.2			73.2										
